Patent US6730679B1, “Pharmaceutical formulations” (SmithKline Beecham Corporation, priority 1996, dated 2004)

Assay: Aqueous solubility of the compound of formula (I)
Type: physicochemical
Text: Current formulations of HIV protease inhibitors for oral administration are in powder or tablet form. However, HIV protease inhibitors in these oral formulations are generally poorly soluble and, therefore, poorly bioavailable for the above reasons. […] In addition, the compound of formula (I) is poorly wetted. Therefore, formulating the compound using standard formulary techniques is difficult and leads in any event to a formulation with low bioavailability.

variation of aqueous solubility with pH (FIG. 1): does not significantly vary with pH | solubility (water (aqueous), room temperature): 95 µg/mL
Compound: CC(C)CN(C[C@@H](O)[C@H](Cc1ccccc1)NC(=O)O[C@H]1CCOC1)S(=O)(=O)c1ccc(N)cc1 (relative stereo) [compound of formula (I), 3S-[3R*(1R*, 2S*)]-[3-[[(4-aminophenyl)sulphonyl](2-methylpropyl)-amino]-2-hydroxy-1-phenylmethyl)propyl]carbamic acid, tetrahydro-3-furanyl ester]
